In brackets after ≈: the same amount, converted by molar mass. Read-outs that look alike come from different tables or passages of the source. Where a SMILES comes first, the peptide text is derived from it. [ ]: non-standard residue; d: D form. ξ: configuration not given here. Oic = O=C(O)[C@@H]1C[C@@H]2CCCC[C@@H]2N1; Tic = O=C(O)[C@@H]1Cc2ccccc2CN1; ξTic = O=C(O)C1Cc2ccccc2CN1; ξOic = O=C(O)C1CC2CCCCC2N1; βAla = NCCC(=O)O
Columns and labels:
[1] = tested on: Bacillus subtillis (ATCC 43223); details: for MIC Bacillus Subtillis: ATCC 43223
[2] = tested on: Mycobacterium ranae (ATCC 110)
[3] = tested on: Salmonella typhimurium (ATCC 13311); details: for MIC Salmonella typhimurium: ATCC 13311
red blood cells [4] = assay: Hemolytic studies
[5] = Metabolic stability, monkey liver microsomes
[6] = Metabolic stability, rat liver microsomes
[7] = Metabolic stability, human liver microsomes; details: for % remaining at time T, Human Liver: 0.5 mg/mL microsomes
[8] = tested on: Staphylococcus aureus Methicillin/Gentamicin/Tetracycline Resistant (ATCC 33592); details: for Minimum Inhibitory Concentration Staphylococcus aureus ME/GM/TC resistant: in vitro MIC, tested at 100, 30, 10, 3, 1, 0.3 and 0.1 μM in 1% DMSO
[9] = Metabolic stability, dog liver microsomes
[10] = Metabolic stability, mouse liver microsomes
[11] = Maximum tolerated dose in mouse model; type: in vivo; details: IP, dosed daily day 1-6
Description: Maximum Tolerated Dose: Six compounds were evaluated in an in vivo mouse model to determine the maximum tolerated dose for each compound by BIOCON, Inc. using the following protocol. For each compound 3 dose concentrations (1/5/25 mg/kg or 5/25/125 mg/kg) were administered IP, 1-2 times per day as split doses. Day 0 weigh the animals, day 1-6 dose daily and observe animals, day 7 weigh, euthanasia followed by necrotize to examine abdominal cavity.

red blood cells [12] = tested on: red blood cells
in vitro [13] = details: mouse, microsomes, pH 7.4
in vitro [14] = details: rat, microsomes, pH 7.4
in vitro [15] = details: monkey, microsomes, pH 7.4
in vitro [16] = details: dog, microsomes, pH 7.4
in vitro [17] = details: human, microsomes, pH 7.4
[18] = tested on: Plasmodium falciparum W2 (CDC Indochina III chloroquine, quinine, pyrimethamine and sulfadoxine-resistant)
[19] = tested on: Plasmodium falciparum D6 (CDC Sierra Leone, mefloquine resistant)
[20] = liver microsomes, 1 μM, T = 60 min
[21] = Minimal Inhibitory Concentration, tested at 100-0.1 in 1% DMSO

With `CC(=O)NCCC(=O)N[C@@H](Cc1ccccc1)C(=O)N1Cc2ccccc2CC1C(=O)N1C(C(=O)NCCC(=O)N[C@@H](CCCCN)C(=O)N2Cc3ccccc3CC2C(=O)N2C(C(=O)NCCC(=O)N[C@@H](Cc3ccccc3)C(=O)N3Cc4ccccc4CC3C(=O)N3C(C(=O)NCCC(=O)N[C@@H](CCCCN)C(=O)N4Cc5ccccc5CC4C(=O)N[C@@H](CCCCN)C(=O)N[C@@H](CCCCN)C(=O)N[C@@H](CCCCN)C(=O)N[C@@H](CCCCN)C(N)=O)CC4CCCCC43)CC3CCCCC32)CC2CCCCC21` (stereo partly drawn) [FKAB-1Gd1, Ac-βAla-F-Tic-Oic-βAla-K-Tic-Oic-βAla-F-Tic-Oic-βAla-K-Tic-KKKK-CONH2] (Ac-[βAla]F[ξTic][ξOic][βAla]K[ξTic][ξOic][βAla]F[ξTic][ξOic][βAla]K[ξTic]KKKK-NH2) the “MIC Bacillus Subtillis” value [1] was 0.001 mM (≈ 0.0025 mg/mL), the “MIC Mycobacterium ranae” value ([2]; ATCC 110) was 0.001 mM (≈ 0.0025 mg/mL) and the “Minimum Inhibitory Concentration Mycobacterium ranae” value ([2]; ATCC 110) was 1 µM. The “Minimum Inhibitory Concentration B. melitensis 16M” value (B. melitensis 16M) was greater than 500 µg/mL, the “Minimum Inhibitory Concentration F. tularensis SCHU-S4” value (F. tularensis SCHU-S4) was 500 µg/mL and the “MIC Salmonella typhimurium” value [3] was 0.01 mM (≈ 0.025 mg/mL). For the same molecule, the “% hemolysis 100/25 μM (first value)” value (red blood cells [4]; 100 μM) was 24.4%/, the “metabolic stability T = 60 min monkey” value [5, 20] was “high” and the remaining at 0.25 h, 1 μM ([5]; monkey, microsomes, pH 7.4) was 90%. The remaining at 0.5 h, 1 μM ([5]; monkey, microsomes, pH 7.4) was 87%, the remaining at 1 h, 1 μM ([5]; monkey, microsomes, pH 7.4) was 89% and the “metabolic stability T = 60 min rat” value [6, 20] was “high”. It also gave a remaining at 0.25 h, 1 μM ([6]; rat, microsomes, pH 7.4) of 82%, a remaining at 0.5 h, 1 μM ([6]; rat, microsomes, pH 7.4) of 79% and a remaining at 1 h, 1 μM ([6]; rat, microsomes, pH 7.4) of 92%. For the same molecule, the remaining at 0.25 h, 1 μM ([7]; human, microsomes, pH 7.4) was 94%, the “metabolic stability T = 60 min human” value [7, 20] was “high” and the “% remaining at time T, Human Liver” value ([7]; second human column (T = 30 min, head not given), 1 μM) was 99%. The “% remaining at time T, Human Liver” value ([7]; third human column (T = 60 min, head not given), 1 μM) was 97%, the “MIC Staphylococcus aureus ME/GM/TC resistant” value ([8]; ATCC 33592) was 0.01 mM (≈ 0.025 mg/mL) and the “% remaining, Dog Liver T = 15” value ([9]; T = 15 min, 1 μM, 0.5 mg/mL microsomes) was 84%. The remaining at 0.5 h, 1 μM ([9]; dog, microsomes, pH 7.4) was 78%, the remaining at 1 h, 1 μM ([9]; dog, microsomes, pH 7.4) was 71% and the “metabolic stability T = 60 min dog” value [9, 20] was “Moderate”. For the same molecule, the “metabolic stability T = 60 min mouse” value [10, 20] was “moderate”, the remaining at 0.25 h, 1 μM ([10]; mouse, microsomes, pH 7.4) was 90% and the remaining at 0.5 h, 1 μM ([10]; mouse, microsomes, pH 7.4) was 64%. For the same molecule, the remaining at 1 h, 1 μM ([10]; mouse, microsomes, pH 7.4) was 53% and the “Maximum Tolerated Dose/Toxicity 125 mg/kg” value ([11]; 125 mg/kg) was 5 out 5 animals died.
With `CC(C)C[C@H](NC(=O)[C@@H](N)CCCCN)C(=O)N1Cc2ccccc2CC1C(=O)N1C(C(=O)NCC(=O)N[C@@H](CCCCN)C(=O)N2Cc3ccccc3CC2C(=O)N2C(C(=O)NCC(=O)N[C@@H](Cc3ccccc3)C(=O)N3Cc4ccccc4CC3C(=O)N3C(C(=O)NCC(=O)N[C@@H](CCCCN)C(=O)N4Cc5ccccc5CC4C(=O)N[C@@H](CCCCN)C(=O)N[C@@H](CCCCN)C(=O)N[C@@H](CCCCN)C(=O)N[C@@H](CCCCN)C(N)=O)CC4CCCCC43)CC3CCCCC32)CC2CCCCC21` (stereo partly drawn) [FKAB-1Gb, NH2--KL-Tic-Oic-GK-Tic-Oic-GF-Tic-Oic-GK-Tic-KKKK-CONH2] (H-KL[ξTic][ξOic]GK[ξTic][ξOic]GF[ξTic][ξOic]GK[ξTic]KKKK-NH2) the “MIC Bacillus Subtillis” value [1] was 0.001 mM (≈ 0.00244 mg/mL), the “MIC Mycobacterium ranae” value ([2]; ATCC 110) was 0.003 mM (≈ 0.00731 mg/mL) and the “Minimum Inhibitory Concentration Mycobacterium ranae” value ([2]; ATCC 110) was 3 µM. For the same molecule, the “% hemolysis 100/25 μM (first value)” value (red blood cells [12]) was 43.6%/, the “% hemolysis 100/25 μM (second value)” value (red blood cells [12]) was 24.9% and the remaining at 0.25 h, 1 μM (in vitro [13]) was 87%. For the same molecule, the remaining at 0.5 h, 1 μM (in vitro [13]) was 73%, the remaining at 1 h, 1 μM (in vitro [13]) was 70% and the remaining at 0.25 h, 1 μM (in vitro [14]) was 84%. For the same molecule, the remaining at 0.5 h, 1 μM (in vitro [14]) was 84%, the remaining at 1 h, 1 μM (in vitro [14]) was 91% and the “MIC Salmonella typhimurium” value [3] was 0.003 mM (≈ 0.00731 mg/mL). The remaining at 0.25 h, 1 μM (in vitro [15]) was 86%, the remaining at 0.5 h, 1 μM (in vitro [15]) was 87% and the remaining at 1 h, 1 μM (in vitro [15]) was 97%. It also gave a remaining at 0.5 h, 1 μM (in vitro [16]) of 99%, a remaining at 1 h, 1 μM (in vitro [16]) of 81% and a remaining at 0.25 h, 1 μM (in vitro [17]) of 98%. For the same molecule, the “MIC Staphylococcus aureus ME/GM/TC resistant” value [8, 21] was 0.03 mM (≈ 0.0731 mg/mL), the “Minimum Inhibitory Concentration Staphylococcus aureus ME/GM/TC resistant” value [8] was 30 µM and the “Maximum Tolerated Dose/Toxicity 1 mg/kg” value [11] was “no observed toxicity”.
In the case of `CC(C)C[C@H](NC(=O)CNC(=O)[C@H](CCCCN)NC(=O)CN)C(=O)N1Cc2ccccc2C[C@H]1C(=O)N1[C@H](C(=O)NCC(=O)N[C@@H](CCCNC(=N)N)C(=O)N2Cc3ccccc3C[C@H]2C(=O)N2[C@H](C(=O)NCC(=O)N[C@@H](Cc3ccccc3)C(=O)N3Cc4ccccc4C[C@H]3C(=O)N3[C@H](C(=O)NCC(=O)N[C@@H](CCCNC(=N)N)C(=O)N4Cc5ccccc5C[C@H]4C(=O)N4[C@H](C(=O)NCC(=O)N[C@@H](Cc5ccccc5)C(=O)N5Cc6ccccc6C[C@H]5C(=O)N5[C@H](C(=O)NCC(=O)N[C@@H](CCCNC(=N)N)C(=O)N6Cc7ccccc7C[C@H]6C(=O)N6[C@H](C(=O)NCC(=O)N[C@@H](CCCCN)C(=O)N[C@@H](CCCNC(=N)N)C(N)=O)C[C@@H]7CCCC[C@@H]76)C[C@@H]6CCCC[C@@H]65)C[C@@H]5CCCC[C@@H]54)C[C@@H]4CCCC[C@@H]43)C[C@@H]3CCCC[C@@H]32)C[C@@H]2CCCC[C@@H]21` [WRFK-2, NH2-GKGL-Tic-Oic-GR-Tic-Oic-GF-Tic-Oic-GR-Tic-Oic-GF-Tic-Oic-GR-Tic-Oic-GKR-CONH2] (H-GKGL[Tic][Oic]GR[Tic][Oic]GF[Tic][Oic]GR[Tic][Oic]GF[Tic][Oic]GR[Tic][Oic]GKR-NH2), the “p(MIC) Bacillus Subtillis” value ([1]; -log(MIC)) is reported as 6.00, the “MIC Bacillus Subtillis” value [1] is reported as 0.001 mM (≈ 0.00362 mg/mL) and the “Actual Bioactivity” value [2] is reported as 0.000. For the same molecule, the “MIC Mycobacterium ranae” value [2] was 1000 mM (≈ 3620 mg/mL), the “Minimum Inhibitory Concentration Mycobacterium ranae” value [2] was “not active” and the “IC50 * W2” value [18] was 6.9 µg/mL (≈ 1.9 µM). The “p(MIC) Salmonella typhimurium” value ([3]; -log(MIC)) was 4.00, the “MIC Salmonella typhimurium” value [3] was 0.1 mM (≈ 0.362 mg/mL) and the “% hemolysis / Hemolytic activity” value (red blood cells [4]; concentration not given) was 100%. The “p(MIC) Staphylococcus aureus ME/GM/TC resistant” value ([8]; -log(MIC)) was 5.00, the “MIC Staphylococcus aureus ME/GM/TC resistant” value [8, 21] was 0.01 mM (≈ 0.0362 mg/mL) and the “Minimum Inhibitory Concentration Staphylococcus aureus ME/GM/TC resistant” value [8] was 10 µM. For the same molecule, the “Actual Bioactivity” value ([8]; p(MIC) used in Staphylococcus aureus QSAR model) was 5.000 and the “IC50 * D6” value [19] was 7.2 µg/mL (≈ 1.99 µM).
For `CC(=O)NCC(=O)N1Cc2ccccc2CC1C(=O)N1C(C(=O)N[C@@H](CCCCN)C(=O)N2Cc3ccccc3CC2C(=O)N2C(C(=O)NCC(=O)N3Cc4ccccc4CC3C(=O)N3C(C(=O)N[C@@H](CCCCN)C(=O)N4Cc5ccccc5CC4C(=O)N[C@@H](CCCCN)C(=O)N[C@@H](CCCCN)C(=O)N[C@@H](CCCCN)C(=O)N[C@@H](CCCCN)C(N)=O)CC4CCCCC43)CC3CCCCC32)CC2CCCCC21` (stereo partly drawn) [FKAB-1Ge, Ac-G-Tic-Oic-K-Tic-Oic-G-Tic-Oic-K-Tic-KKKK-CONH2] (Ac-G[ξTic][ξOic]K[ξTic][ξOic]G[ξTic][ξOic]K[ξTic]KKKK-NH2), the “MIC Bacillus Subtillis” value [1] was 0.001 mM (≈ 0.00203 mg/mL), the “MIC Mycobacterium ranae” value ([2]; ATCC 110) was 0.003 mM (≈ 0.0061 mg/mL) and the “% hemolysis 100/25 μM (first value)” value (red blood cells [12]) was 26.7%/. The “% hemolysis 100/25 μM (second value)” value (red blood cells [12]) was 9.2%, the remaining at 0.25 h, 1 μM (in vitro [13]) was 85% and the remaining at 0.5 h, 1 μM (in vitro [13]) was 20%. The remaining at 1 h, 1 μM (in vitro [13]) was 11%, the remaining at 0.25 h, 1 μM (in vitro [14]) was 69% and the remaining at 0.5 h, 1 μM (in vitro [14]) was 73%. For the same molecule, the remaining at 1 h, 1 μM (in vitro [14]) was 95%, the “MIC Salmonella typhimurium” value [3] was 0.01 mM (≈ 0.0203 mg/mL) and the remaining at 0.25 h, 1 μM (in vitro [15]) was 56%. It also gave a remaining at 0.5 h, 1 μM (in vitro [15]) of 73%, a remaining at 0.5 h, 1 μM (in vitro [16]) of 43% and a remaining at 1 h, 1 μM (in vitro [16]) of 54%. For the same molecule, the remaining at 0.25 h, 1 μM (in vitro [17]) was 114%, the “MIC Staphylococcus aureus ME/GM/TC resistant” value [8, 21] was 0.01 mM (≈ 0.0203 mg/mL) and the “Minimum Inhibitory Concentration Staphylococcus aureus ME/GM/TC resistant” value [8] was 10 µM. The “Maximum Tolerated Dose/Toxicity 1 mg/kg” value [11] was “no observed toxicity”.

— patent publication US20120197004A1, “NOVEL ANTI-MICROBIAL PEPTIDOMIMETIC COMPOUNDS AND METHODS TO CALCULATE ANTI-MICROBIAL ACTIVITY” (priority 2006, published 2012)
